The structures appear in SMILES notation. Active and inactive are the calls of the source.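 Rule for the calls: active = AC50 no more than ten times the top concentration tested; inconclusive = flat fit with inhibition between 30% and 70%, or unusable fit; inactive = AC50 beyond ten times the top concentration.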

Chain of Caspase recruitment domain-containing protein 9 (Homo sapiens) + B-cell lymphoma/leukemia 10 (Homo sapiens) (O95999 whole entry, looked up, the tested form may be a part): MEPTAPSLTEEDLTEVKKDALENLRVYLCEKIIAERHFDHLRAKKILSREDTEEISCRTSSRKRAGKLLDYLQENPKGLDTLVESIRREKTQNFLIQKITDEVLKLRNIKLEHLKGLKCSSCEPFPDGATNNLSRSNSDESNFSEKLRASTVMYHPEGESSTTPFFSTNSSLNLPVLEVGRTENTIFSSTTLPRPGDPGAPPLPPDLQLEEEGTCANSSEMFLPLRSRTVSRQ
Chain of Caspase recruitment domain-containing protein 9 (Homo sapiens) + B-cell lymphoma/leukemia 10 (Homo sapiens) (Q9H257 whole entry, looked up, the tested form may be a part): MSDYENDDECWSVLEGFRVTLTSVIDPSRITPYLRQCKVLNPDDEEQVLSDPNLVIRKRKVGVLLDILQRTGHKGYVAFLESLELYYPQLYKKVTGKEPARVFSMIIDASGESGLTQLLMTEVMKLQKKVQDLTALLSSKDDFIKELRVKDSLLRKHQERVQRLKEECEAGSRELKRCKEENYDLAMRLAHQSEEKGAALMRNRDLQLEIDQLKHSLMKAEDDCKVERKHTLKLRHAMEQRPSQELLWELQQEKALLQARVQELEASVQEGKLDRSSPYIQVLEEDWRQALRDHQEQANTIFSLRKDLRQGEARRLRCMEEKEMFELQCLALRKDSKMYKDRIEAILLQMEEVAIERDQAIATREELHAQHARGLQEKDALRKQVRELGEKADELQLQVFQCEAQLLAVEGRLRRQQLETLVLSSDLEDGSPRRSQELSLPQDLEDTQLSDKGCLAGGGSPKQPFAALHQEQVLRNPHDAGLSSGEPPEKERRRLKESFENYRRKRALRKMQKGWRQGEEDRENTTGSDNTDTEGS

The first experiment has as its target Caspase recruitment domain-containing protein 9 (Homo sapiens) + B-cell lymphoma/leukemia 10 (Homo sapiens) (UniProt Q9H257+O95999). The experiment is described as follows: disruptors of CARD9-BCL10 binding, dose response, selectivity assay for CARD9-TRIM62 disruptor project, cell lysate, HEK293FT lysates, Luminex bead ELISA (AID 1259340).
Conditions: not given
In general terms: An ELISA detects its analyte on a solid surface through an enzyme-linked reagent.
Usually AC50 stands for the concentration at which the activity in the assay is half-maximal. Take `c1ccc(-c2nc(-c3ccco3)n3ccccc23)cc1`: the AC50 is > 160 µM (inactive). For the molecule `O=C(Nc1nc(-c2ccco2)c(-c2ccco2)s1)C1CCC1`, the AC50 is > 160 µM (inactive).

In the case of `CC(=O)c1cccc(OCC(=O)N(C)CC(=O)NCc2ccco2)c1`, the AC50 is > 160 µM (inactive). Still for that read-out and setting: under `O=C(NCC1CCCO1)c1cc(-c2ccco2)nc2ccccc12` (configuration not stated) stands > 160 µM (inactive); under `CCc1ccc(Nc2nc(C(=O)NCc3ccc(N(C)C)cc3)nc3ccccc23)cc1`, 7.97 µM; under `CC(=O)Nc1ccc(Nc2nc(-c3nnc(-c4cccc(C)c4)o3)nc3ccccc23)cc1`, 72.4 µM. Turning to `Nc1ccc2ncccc2c1N`, the AC50 is 16.1 µM. On the same count and under the same terms, for `O=C(O)C1Oc2cc3ccccc3cc2O1` the value was > 160 µM (inactive); for `COc1cccc(NC(=O)CN(C)C(=O)c2cc3c(s2)CCC3)c1`, > 160 µM (inactive). As to `CCOc1ccccc1NC(=O)N1CCCC(c2nccn2CCOC)C1` (configuration not stated), the AC50 is > 160 µM (inactive). For `O=C(O)c1ccc2nc(-c3ccco3)c(-c3ccco3)nc2c1`, the AC50 was 19.6 µM. Still for that read-out and setting: for `CC(=O)c1sc2nc(-c3ccco3)ccc2c1N` the value was 26.1 µM.

Consider `O=[N+]([O-])c1cccc(-c2nnc3ccc4ccccc4n23)c1`, for which the AC50 was > 160 µM (inactive). Same read-out and setting: for `O=C(Nc1nncs1)c1cc(-c2ccco2)nc2ccccc12` the value was 68.5 µM; for `O=C(Nc1nccs1)c1cc(-c2ccccn2)nc2c(Cl)cccc12`, 41.1 µM; for `O=C(Nc1nccs1)c1cc(-c2ccco2)nc2ccccc12`, > 160 µM (inactive). On to `O=C(COc1cccnc1[N+](=O)[O-])c1ccc(Cl)s1`, for which the AC50 was 40 µM. Regarding `NC(=O)c1ccc(CN2C(=O)C3(CCNCC3)Nc3ccccc32)cc1`, the AC50 was > 160 µM (inactive). On the same count and under the same terms, for `O=C1C=C(c2ccccc2)Nc2ccccc2N1` the value was > 160 µM (inactive); for `Cc1ccc(Nc2nc(C(=O)Nc3ccc(Cl)cc3)nc3ccccc23)cc1`, > 160 µM (inactive); for `Cc1nc(C)c(C(=O)Nc2ncc([N+](=O)[O-])s2)o1`, 66 µM. In the case of `O=C(Nc1nc(-c2ccco2)c(-c2ccco2)s1)c1ccc(F)cc1F`, the AC50 is > 160 µM (inactive).

Consider `C[C@H](CO)N1C[C@H](C)[C@@H](CN(C)CC2CCCCC2)OCCCC[C@H](C)Oc2ccc(NS(=O)(=O)c3ccc(F)cc3)cc2C1=O`, for which the AC50 was > 160 µM (inactive). For `Cc1ccc(-c2nnc(-c3nc(Nc4nc5ccccc5s4)c4ccccc4n3)o2)cc1`, the AC50 is 64 µM. Regarding `CCN1CCN(C(=O)c2cc(-c3ccco3)nc3ccccc23)CC1`, the AC50 is > 160 µM (inactive). On the same count and under the same terms, under `O=C1CC2(CCN(C(=O)Nc3ccccc3)CC2)CN1Cc1ccc(Cl)cc1` stands 79.7 µM. For `O=C(NC1(C(F)(F)F)Oc2ccc(Cl)cc2O1)N1CCC2(CC1)OCCO2` (configuration not stated), the AC50 is 74.8 µM. Still for that read-out and setting: for `Cc1ccc(-c2cc(C(=O)NCc3ccco3)c3ccccc3n2)o1` the value was 80.3 µM. Still for that read-out and setting: for `O=C1CS/C(=N\N=C\c2ccco2)N1c1ccccc1` the value was > 160 µM (inactive); for `C=CCNc1ncnc2c1CCN(C(=O)c1ccc(CSC)o1)CC2`, > 160 µM (inactive).

On to `C(=C\c1ccco1)/c1nc2ccccc2[nH]1`, for which the AC50 is 58.6 µM. On the same count and under the same terms, under `COc1ccc(-n2c(C)c3c(OC)cccc(=O)c3c2C)cc1` stands > 160 µM (inactive); under `CN(C)c1ccc(CN2C[C@H]3CC[C@@H]2CN(C(=O)c2ccncc2)C3)cn1`, > 160 µM (inactive); under `Cc1cccc2nc(CSCc3ccco3)cn12`, > 160 µM (inactive).

The experiment is the same for the next values; noted with them: at 80 µM (top of the series).
Consider `Cc1ccc(S(=O)(=O)Cc2ccc(C(=O)N3CCC4(CC3)OCCO4)o2)cc1`, for which the “activity change, negative = inhibition” value is “inactive”. On the same count and under the same terms, under `CC1(C)Cc2ccccc2-c2nc(-c3ccccc3)oc(=O)c21` stands “inactive”; under `O=C(Nc1ccc(OCC(=O)N2CCOCC2)cc1)c1cncc(Br)c1`, “inactive”. The same measure, in the same setting: under `c1coc(-c2cn3ccc4ccccc4c3n2)c1` stands “inactive”.

On to `COc1ccc(S(=O)(=O)c2ccccc2)cc1NS(=O)(=O)c1cccc(C(=O)O)c1`, for which the “activity change, negative = inhibition” value was “inactive”. The same measure, in the same setting: for `O=C(NCCCN1CCOCC1)c1cc(-c2ccco2)nc2ccccc12` the value was “inactive”; for `NC(=O)C1(N2CCCCC2)CCN(c2ncc(NC(=O)c3ccc(Cl)cc3)cc2C(=O)O)CC1`, “inactive”. Still for that read-out and setting: under `Cc1cncc(-c2ccc(S(N)(=O)=O)cc2F)c1` stands “inactive”; under `CCc1nccn1CCC(=O)N1C[C@H](CO)C[C@H](CN2CCCC2)C1`, “inactive”.

In the case of `O=S(=O)(Nc1nccs1)c1ccc(-n2cccc2)cc1`, the “activity change, negative = inhibition” value was “inactive”. Same read-out and setting: under `CCc1nc(OCc2ccco2)c2sc3nc4c(cc3c2n1)COC(C)(C)C4` stands “inactive”.

`Cc1cccc(Nc2nc(C(=O)Nc3cc(F)ccc3F)nc3ccccc23)c1`: the “activity change, negative = inhibition” value is “inactive”. On the same count and under the same terms, for `c1cn(CCc2noc(C3CCCC3)n2)c(-c2cc3n(n2)CCCNC3)n1` the value was “inactive”; for `O=C(NCCc1ccccc1)c1cc2cccnc2n(Cc2ccccc2)c1=O`, “inactive”; for `O=C(CN1CCOC1=O)N1CCC2(CCC(=O)N(CCCn3ccnc3)C2)CC1`, “inactive”.

For `CCN1CCOC(=O)C1CC(=O)Nc1cccc(C)c1` (configuration not stated), the “activity change, negative = inhibition” value was “inactive”. The same measure, in the same setting: for `O=C(Cn1c(=O)cc(C(=O)N2CCc3ccccc3C2)c2ccccc21)NCc1ccc2c(c1)OCO2` the value was “inactive”.

Take `COCC(=O)N1CCCC2(CCN(CCN3CCCC3)C2=O)C1` (configuration not stated): the “activity change, negative = inhibition” value was “inactive”. The same measure, in the same setting: for `NC(=O)C1(N2CCCCC2)CCN(c2ccc(NC(=O)c3ccccc3F)cc2C(=O)O)CC1` the value was “inactive”.

For `NC(=O)C1(N2CCCCC2)CCN(c2ncc(NC(=O)c3ccccc3)cc2C(=O)O)CC1`, the “activity change, negative = inhibition” value was “inactive”.

As for `Cc1ccc(C(=O)Nc2cnc(N3CCC(C(N)=O)(N4CCCCC4)CC3)c(C(=O)O)c2)cc1`, the “activity change, negative = inhibition” value was “inactive”. Same read-out and setting: under `CCOC(=O)C1CCN(C(=O)CN(Cc2ccccc2)S(C)(=O)=O)CC1` stands “inactive”.

For `CCCc1cc(C(=O)N2CC[C@H]3CNC[C@H]32)n(C)n1`, the “activity change, negative = inhibition” value was “inactive”. For the molecule `CCn1ccnc1C1CCN(C(=O)CCn2c(C)nc3ccccc32)CC1`, the “activity change, negative = inhibition” value was “inactive”. Still for that read-out and setting: for `CC(=O)c1ccc(NC(=O)c2noc3c2CCC3)cc1` the value was “inactive”; for `CC(C)(C)c1ccc(-c2nc(C#N)c(NCc3ccncc3)o2)cc1`, “inactive”. The same measure, in the same setting: for `CCCc1oc(C(=O)O)cc1CN` the value was “inactive”.

`Cc1ccc(N2C(=O)c3ccccc3C2C(=O)c2ccc(O)cc2O)cc1` (configuration not stated): the “activity change, negative = inhibition” value is “inactive”. The same measure, in the same setting: under `O=C(Nc1nc(-c2nc3ccccc3s2)cs1)c1ccco1` stands “inactive”; under `Cc1ccc(N2NC(c3ccc(Br)cc3)=CCC2=O)cc1`, “inactive”.

On to `O=[N+]([O-])c1ccc2nn(Cc3ccccc3)cc2c1`, for which the “activity change, negative = inhibition” value is “inactive”.

As for `COCCC(=O)N1CCCC2(CCN(CCN3CCCC3)C2=O)C1` (configuration not stated), the “activity change, negative = inhibition” value is “inactive”. With `O=c1/c(=C/c2ccco2)sc2nc3ccccc3n12`, the “activity change, negative = inhibition” value is “inactive”. For the molecule `NC(=O)C1(N2CCCCC2)CCN(c2ccc(NC(=O)c3cccc(Cl)c3)cc2C(=O)O)CC1`, the “activity change, negative = inhibition” value was “inactive”. On the same count and under the same terms, for `CCCN1CCCn2nc(CNC(=O)[C@H]3CC[C@@H](N)C3)cc2C1` the value was “inactive”; for `NC(=O)C1(N2CCCCC2)CCN(c2ncc(NC(=O)c3cccs3)cc2C(=O)O)CC1`, “inactive”. The same measure, in the same setting: under `COc1ccc(-c2ccc(CCC(=O)O)o2)cc1` stands “inactive”. The same measure, in the same setting: under `CCCN1CCCn2nc(CNC(=O)[C@@H](N)Cc3ccc(O)cc3)cc2C1` stands “inactive”; under `Cc1ccc(-c2nn(-c3ccccc3)cc2CN(Cc2ccccc2)C(=O)CCC(=O)O)o1`, “inactive”. Regarding `CC1CCN(c2nc(-c3ccco3)c3c(c2C#N)CC(C)(C)OC3)CC1`, the “activity change, negative = inhibition” value is “inactive”. Same read-out and setting: for `OCc1ccc(O)c2ncccc12` the value was “inactive”.

For the molecule `COC[C@]1(O)CCN(C(=O)CCN(C)S(C)(=O)=O)CC1(C)C`, the “activity change, negative = inhibition” value was “inactive”. The same measure, in the same setting: under `O=C(Nc1nnc(-c2ccco2)s1)c1ccccc1` stands “inactive”; under `C[C@H](CO)N1C[C@H](C)[C@@H](CN(C)CC2CCCCC2)OCCCC[C@H](C)Oc2ccc(NS(C)(=O)=O)cc2C1=O`, “inactive”; under `Cc1c(C(=O)OCC2CCCO2)[nH]c2c1C(=O)CC(c1ccco1)C2` (configuration not stated), “inactive”. On the same count and under the same terms, for `CC(C)C(CC(=O)NCc1ccco1)c1ccco1` (configuration not stated) the value was “inactive”; for `CC1=CCC(C(=O)O)C(C(=O)NC2CCCCC2)C1` (configuration not stated), “inactive”.

`O=S(=O)(c1ccccc1)N1CC2CN(Cc3ccc(O)cc3)C2C1` (configuration not stated): the “activity change, negative = inhibition” value was “inactive”.

`N#CNc1nc(O)cc(=O)[nH]1`: the “activity change, negative = inhibition” value was “inactive”.

Take `O=C(Cc1ccc(S(=O)(=O)N2CCOCC2)s1)Nc1nc2c(s1)CCCC2`: the “activity change, negative = inhibition” value was “inactive”. Take `O=C(NCCc1ccco1)c1ccc(OCc2cn3ccccc3n2)cc1`: the “activity change, negative = inhibition” value is “inactive”. On the same count and under the same terms, for `O=C(COC(=O)c1ccc(S(=O)(=O)NCc2ccco2)cc1)Nc1ccc(Cl)cn1` the value was “inactive”; for `Cc1cnc(C)c(N2CCN(C(=O)[C@H]3CC[C@@H](N)C3)CC2)n1`, “inactive”.

(Values after PubChem BioAssay AID1259340 (Broad Institute, 2017).)
